Data reported in patent US11339185B2, “Cyclic dinucleotides as anticancer agents” (Bristol-Myers Squibb Company, priority 2018, dated 2022).
Where two headings read alike, the source gives them in different places.

Tests used:
[1] = test system: THP1-Dual cells, IRF pathway (IRF3); assay: STING THP1 Reporter Assay, IRF pathway (secreted Lucia luciferase, QUANTI-Luc); assay type: cell-based; conditions: 10% human plasma, luciferase readout, 100% activation = 100 μM cGAMP, read-out: THP1 Reporter Assays EC50 (μM) IRF3
Excerpt: (§1) THP1-Dual™ cells were derived from the human THP-1 monocyte cell line by stable integration of two inducible reporter constructs. To this end, THP1-Dual™ cells allow the simultaneous study of the NF-κB pathway, by monitoring the activity of SEAP, and the IRF pathway by assessing the activity of a secreted luciferase (Lucia). Both reporter proteins are readily measurable in the cell culture supernatant when using QUANTI-Blue™, a SEAP detection reagent, and QUANTI-Luc™, a luciferase detection reagent.
(§2) THP1-Dual™ cells induce the activation of NF-κB in response to STING agonists. They also trigger the IRF pathway upon stimulation with STING agonists, such as cGAMP. Here, the THP-1-Dual cells were used to assess STING binders for function on the cellular level.
(§3) Serial dilutions of compounds in DMSO were added to low volume 384 well plates at 100 nl/well using an ECHO acoustic dispenser (Labcyte, model 550) to achieve final starting concentration of 100 μM in cell suspension. THP-1 Dual™ STING reporter cells (Invivogen, Dual cells cat #THPD-nfis) were added to the plates with compounds at 15,000 cells in 10 μL per well in RPMI media (Gibco, cat #11875) containing 10% human plasma in a low volume 384-well black wall clear bottom tissue culture plate (Corning, cat #3542) for SEAP assay and low volume solid white plate (Corning, cat #3826) for luciferase assay. One column of the plate was reserved for treatment with cGAMP at 100 μM for 100% activation calculation and one column for no treatment (DMSO only) for baseline activation. Plates were then incubated in 37 OC incubator at 5% CO2 for 20 hours.
(§4) In the SEAP assay, 5 μl of 2× QuantiBlue (Invivogen, cat #Rep-qb2) is added to 384 well black plates seeded with THP1 cells and incubated at 37° C. for 2 hours. Plates were read on the Envision (Perkin Elmer) at 620 nm wavelength (OD620). In the luciferase assay, 5 μl of Quantiluc (Invivogen, Rep-qlc2) is added to white 384 well plates seeded with THP1 cells and read at 5 minutes on the Envision (Perkin Elmer) using a luminescence protocol (RLU). For both cell lines, 100% activation was determined by value (RLU) of THP-1 Dual STING cells stimulated with 100 μM cGAMP (Invivogen, cat #TLRL-NACGA23-5).

[2] = target: T1, STING AQ: His-TVMV-S-hSTING(155-341)-G230A-R293Q (Homo sapiens, UniProt Q86WV6, G230A/H232R/R293Q); assay: STING HTRF binding assay (time resolved FRET competition), STING AQ; conditions: 20 nM His-tagged STING AQ cytoplasmic domain, 40 nM fluorescein-labeled cGAMP analog probe, one hour; read-out: HTRF Binding Assays IC50 (μM) AQ
T1 construct: STING AQ: His-TVMV-S-hSTING(155-341)-G230A-R293Q
T1 sequence (Q86WV6 with tags, fused parts or gaps G230A/H232R/R293Q): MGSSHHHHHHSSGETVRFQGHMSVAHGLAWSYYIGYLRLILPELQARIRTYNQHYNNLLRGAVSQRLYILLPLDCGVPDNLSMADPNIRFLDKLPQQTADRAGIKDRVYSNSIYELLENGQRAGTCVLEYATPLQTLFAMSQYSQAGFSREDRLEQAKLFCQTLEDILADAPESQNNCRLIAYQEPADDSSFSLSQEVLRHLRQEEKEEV
Method: (§5) A time resolved FRET-based competition binding assay was used to assess test article binding to STING WT and STING AQ. His-tagged STING cytoplasmic domain (WT or AQ) at a concentration of 20 nM was incubated with 2.5 nM Tb-labeled anti-His antibody, test compound, and fluorescein-labeled cGAMP analog probe (BioLog cat. no. C195) at a concentration of 200 nM (STING WT) or 40 nM (STING AQ) in PBS containing 0.005% Tween-20 and 0.1% BSA for one hour. Fluorescence at 495 nm and 520 nm was measured using an EnVision microplate reader to quantify FRET between Tb-labeled anti-His antibody and fluorescein-labeled probe. Background was defined as the signal obtained in the absence of STING protein, and background subtracted FRET ratios were normalized to the maximum signal obtained in the absence of test compound. These values were converted to a percent inhibition. Percent inhibition was determined for test compounds at 11 concentrations. The IC50, defined as the concentration of competing test compound needed to reduce specific binding of the probe by 50%, was calculated using the 4 parameter logistic equation to fit the data

[3] = target: T2, STING WT: His-TVMV-S-hSTING(155-341)-H232R (Homo sapiens, UniProt Q86WV6, H232R); assay: STING HTRF binding assay (time resolved FRET competition), STING WT; conditions: 20 nM His-tagged STING WT cytoplasmic domain, 200 nM fluorescein-labeled cGAMP analog probe, one hour; read-out: HTRF Binding Assays IC50 (μM) WT
T2 construct: STING WT: His-TVMV-S-hSTING(155-341)-H232R
T2 sequence (Q86WV6 with tags, fused parts or gaps H232R): as the sequence (Q86WV6 with tags, fused parts or gaps G230A/H232R/R293Q) above, with A99G, Q162R counted along it
Method: as §5

[4] = test system: THP1-Dual cells, NF-κB pathway; assay: STING THP1 Reporter Assay, NF-κB pathway (SEAP, QUANTI-Blue); assay type: cell-based; conditions: 10% human plasma, SEAP readout (OD620), 100% activation = 100 μM cGAMP, read-out: THP1 Reporter Assays EC50 (μM) NFkB
Excerpt: as §1, §2, §3, §4

Row | EC50 ([1]; 20 hours) [µM] | IC50 [2] [µM] | IC50 [3] [µM] | EC50 ([4]; 20 hours) [µM] | EC50 ([1]; Homo sapiens, THP1-Dual, 20 h) [µM] | EC50 ([4]; Homo sapiens, THP1-Dual, 20 h) [µM] | Compound
1 | > 100 | 2.18 | 24.5 | > 100 |  |  | O=P1(S)OC[C@@H]2[C@@H](COP(=O)(S)O[C@H]3[C@@H](F)[C@H](n4cnc5c4ncn4ccnc54)O[C@@H]3CO1)C[C@H]2n1cnc2c(Cl)ncnc21 (single isomer, unassigned) [Example 18-4]
2 |  | 7.78 | > 100 |  | > 100 | > 100 | NC(=O)c1cc([C@@H]2C[C@@H]3COP(O)(=S)O[C@H]4[C@@H](F)[C@H](n5cnc6c(N)ncnc65)O[C@@H]4COP(=O)(O)OCC32)ccn1 (single isomer, unassigned) [Example 14]
3 | 93.1 | 0.09 | 1.38 | > 100 |  |  | Nc1ncnc2c1ncn2[C@@H]1O[C@@H]2COP(=O)(S)OC[C@@H]3[C@@H](COP(=O)(S)O[C@H]2[C@H]1F)C[C@H]3n1cnc2c1ncn1ccnc21 (single isomer, unassigned) [Example 3-1]
4 | 3.18 | 0.01 | 0.13 | 6.99 |  |  | Nc1ncnc2c1ncn2[C@@H]1C[C@@H]2COP(=O)(S)O[C@@H]3[C@H](F)[C@@H](COP(=O)(S)OC[C@H]21)O[C@H]3n1cnc2c(=O)n3cc[nH]c3nc21 (single isomer, unassigned) [Example 6-2]
5 | > 100 | 0.04 | 2.71 | > 100 |  |  | Nc1ncnc2c1ncn2[C@@H]1O[C@@H]2COP(=O)(S)OC[C@@H]3[C@@H](COP(=O)(S)O[C@H]2[C@H]1F)C[C@H]3n1cnc2c(=O)[nH]cnc21 (single isomer, unassigned) [Example 22-3]
6 |  | 0.1 | 4.78 |  | 54.6 | 90 | NC(=O)c1cc([C@@H]2C[C@@H]3COP(=O)(S)O[C@H]4[C@@H](F)[C@H](n5cnc6c(N)ncnc65)O[C@@H]4COP(=O)(O)OC[C@H]32)ccn1 (single isomer, unassigned) [Example 13]

Continued, compound first:

Row | Compound | EC50 ([1]; 20 hours) [µM] | IC50 [2] [µM] | IC50 [3] [µM] | EC50 ([4]; 20 hours) [µM] | EC50 ([1]; Homo sapiens, THP1-Dual, 20 h) [µM] | EC50 ([4]; Homo sapiens, THP1-Dual, 20 h) [µM]
7 | NC(=O)c1cc([C@@H]2C[C@@H]3COP(=O)(S)O[C@H]4[C@@H](F)[C@H](n5cnc6c5ncn5ccnc65)O[C@@H]4COP(=O)(S)OC[C@H]32)ccn1 (stereo partly drawn) [Example 19, 4-[(1R,6S,8R,9S,15R,17R,18R)-18-fluoro-17-{3H-imidazo[2,1-f]purin-3-yl}-3,12-dioxo-3,12-disulfanyl-2,4,11,13,16-pentaoxa-3λ^5,12λ^5-diphosphatricyclo[13.3.0.0^6,9]octa-decan-8-yl]pyridine-2-carboxamide] |  | 0.01 | 0.01 |  | 0.97 | 2.38
8 | Nc1ncnc2c1ncn2[C@@H]1O[C@@H]2COP(=O)(S)OC[C@@H]3[C@@H](COP(=O)(S)O[C@H]2[C@H]1F)C[C@H]3n1cnc2c(=O)n3nnnc3[nH]c21 (single isomer, unassigned) [Example 23] |  | 0.07 | 4.96 |  | > 100 | 92.2
9 | Nc1ncnc2c1ncn2[C@@H]1C[C@@H]2COP(=O)(S)O[C@H]3[C@@H](O)[C@H](n4cnc5c(=O)n6cc[nH]c6nc54)O[C@@H]3COP(=O)(S)OC[C@H]21 (single isomer, unassigned) [Example 5-1] |  | > 100 | > 100 |  | > 100 | > 100
10 | Nc1ncnc2c1ncn2[C@@H]1C[C@@H]2COP(=O)(S)O[C@@H]3[C@H](O)[C@@H](COP(=O)(S)OC[C@H]21)O[C@H]3n1cnc2c(=O)n3ccnc3[nH]c21 (single isomer, unassigned) [Example 2-1] |  | 0.002 | 0.06 |  | 3.07 | 7.15
11 | NC(=O)c1cc([C@@H]2O[C@@H]3COP(=O)(S)OC[C@@H]4[C@@H](COP(=O)(S)O[C@@H]2[C@@H]3O)C[C@H]4n2cnc3c(N)ncnc32)ccn1 (single isomer, unassigned) [Example 20-3] | 5.23 | 0.01 | 0.01 | 7.64 |  | 
